Assay results taken from PMC10838382 (Cancer Drug Resistance, 2024).
Read-outs that look alike come from different tables or passages of the source.

Columns and labels:
PRXF 22Rv1 = test: 2D proliferation assay (CellTiter-Blue); type: cell-based; details: Homo sapiens
PRXF DU-145 = test: 2D proliferation assay (CellTiter-Blue); type: cell-based, human; details: Homo sapiens
PC-3 = test: 2D proliferation assay (CellTiter-Blue); type: cell-based; details: Homo sapiens
DU-145DOC10 [1] = test: 2D proliferation assay, docetaxel-resistant subline; type: cell-based, human; details: for IC50: Homo sapiens
22Rv1DOC8 [2] = test: as above; type: cell-based, human; details: for IC50: Homo sapiens
PC-3DOC3 = test: 2D proliferation assay, docetaxel-exposed subline; type: cell-based, human
DU-145DOC10 [3] = test: 3D clonogenic assay (soft agar); type: cell-based, human; details: for Relative resistance: DU-145DOC10 vs DU-145
22Rv1DOC8 [4] = test: 3D clonogenic assay (soft agar); type: cell-based, human; details: for Relative resistance: 22Rv1DOC8 vs 22Rv1; for IC50: Homo sapiens
[5] = Bidirectional permeability assay across Caco-2 monolayers; type: in vitro ADME, human; details: human
Method: (§1) Samples were analyzed using LC-MS/MS.
(§2) The medium was changed 24 h before the experiment. […] The bioanalysis of docetaxel was performed with the .
(§3) The following equation was used to calculate apparent permeability coefficient (Papp):
(§4) dQ: amount of transporter test drug in pmol; dT: incubation time in seconds; A: surface of porous membrane in cm^2 (standard: 0.7); C0: initial concentration of test agent in the donor chamber in pmol/cm^3.

Caco-2 cell monolayers = test: as above; type: in vitro ADME, human; details: for ER: inhibitor where named: valspodar 10 μM or ritonavir 50 μM
Method: as §1, §2, §3, §4

GXA 3011 = test: cells; details: read-out: Relative docetaxel IC50
GXA NUGC-4 = test: cells; details: Homo sapiens, NUGC-4, read-out: Relative docetaxel IC50
LXFA EKVX = test: cells; details: Homo sapiens, read-out: Relative docetaxel IC50
MAXFLB MCF7 = test: cells; details: Homo sapiens, MCF7, read-out: Relative docetaxel IC50
MAXFTN CAL-51 = test: cells; details: Homo sapiens, CAL-51, read-out: Relative docetaxel IC50
MAXFTN MCF 10A = test: cells; details: Homo sapiens, read-out: Relative docetaxel IC50
OVXF 899 = test: cells; details: read-out: Relative docetaxel IC50
OVXF NCI-ADR-RES = test: cells; details: Homo sapiens, read-out: Relative docetaxel IC50
DU-145 = test: 3D clonogenic assay (soft agar); details: Homo sapiens, DU-145, read-out: Docetaxel IC50, DU-145, 3D clonogenic assay
22Rv1 = test: 3D clonogenic assay (soft agar); details: Homo sapiens, 22Rv1, read-out: Docetaxel IC50, 22Rv1, 3D clonogenic assay
LXFA 737 = test: 2D proliferation assay (CellTiter-Blue); details: read-out: Relative docetaxel IC50
MAXFTN MX1 = test: 2D proliferation assay (CellTiter-Blue); details: read-out: Relative docetaxel IC50
OVXF EFO-27 = test: 2D proliferation assay (CellTiter-Blue); details: Homo sapiens, EFO-27, read-out: Relative docetaxel IC50
PC-3M = test: 2D proliferation assay (CellTiter-Blue); details: Homo sapiens, read-out: Relative docetaxel IC50
15 tumor cell lines = test: 2D proliferation assay (CellTiter-Blue), panel of 15 tumor cell lines; details: read-out: mean relative IC50
[6] = docetaxel + elacridar 1 µM, 3D clonogenic assay
[7] = docetaxel + ritonavir 10 µM, 3D clonogenic assay
[8] = docetaxel without elacridar, 3D clonogenic assay
[9] = docetaxel without ritonavir, 3D clonogenic assay
[10] = without elacridar (elacridar experiment)
[11] = without ritonavir (ritonavir experiment)

CC(=O)O[C@@]12CO[C@@H]1C[C@H](O)[C@@]1(C)C(=O)[C@H](O)C3=C(C)[C@@H](OC(=O)[C@H](O)[C@@H](NC(=O)OC(C)(C)C)c4ccccc4)C[C@@](O)([C@@H](OC(=O)c4ccccc4)[C@H]21)C3(C)C [Docetaxel]
IC50 (PRXF 22Rv1; 22Rv1, 2D culture, Figure 1, read-out: IC 50): 0.98 nM | IC50 (PRXF 22Rv1; 22Rv1 parental, 2D proliferation assay, read-out: Docetaxel IC50): 1 nM | IC50 (PRXF 22Rv1; PRXF 22Rv1, 2D proliferation assay, read-out: Relative docetaxel IC50): 1.5 nM | IC50 (PRXF DU-145; DU-145, DU-145, 2D culture, Figure 1, read-out: IC 50): 0.81 nM | IC50 (PRXF DU-145; DU-145, DU-145 parental, 2D proliferation assay, read-out: Docetaxel IC50): 0.8 nM | IC50 (PRXF DU-145; DU-145, PRXF DU-145, 2D proliferation assay, read-out: Relative docetaxel IC50): 0.9 nM | IC50 (PC-3; PC-3, read-out: Relative docetaxel IC50): 1.9 nM | IC50 (PC-3; PC-3 parental, read-out: Docetaxel IC50): 1.1 nM | Relative resistance (DU-145DOC10 [1]; DU-145DOC10 vs DU-145, 2D proliferation assay): 22.3 | IC50 (DU-145DOC10 [1]; DU-145DOC10 (passage 10 nM docetaxel), 2D proliferation assay, read-out: Docetaxel IC50): 17.8 nM | IC50 (DU-145DOC10 [1]; DU-145DOC10, 2D culture, Figure 1, read-out: IC 50): 17.8 nM | Relative resistance (22Rv1DOC8 [2]; 22Rv1-DOC8 vs 22Rv1, 2D proliferation assay): 133.6 | IC50 (22Rv1DOC8 [2]; 22Rv1-DOC8 (passage 8 nM docetaxel), 2D proliferation assay, read-out: Docetaxel IC50): 134 nM | IC50 (22Rv1DOC8 [2]; 22Rv1DOC8, 2D culture, Figure 1, read-out: IC 50): 134 nM | IC50 (PC-3DOC3; Homo sapiens, PC-3DOC3 (passage 2 nM docetaxel)): 4.4 nM | Relative resistance (PC-3DOC3; PC-3DOC3 vs PC-3): 4.0 | IC50 (DU-145DOC10 [3]; DU-145DOC10, 3D clonogenic assay, without elacridar (elacridar experiment), read-out: Docetaxel IC50): 11.7 nM | fold decrease of relative IC50 of docetaxel by elacridar (DU-145DOC10 [3]; DU-145DOC10, elacridar 1 µM as printed (lower of two concentrations), 3D clonogenic assay): 6 fold | fold decrease of relative IC50 of docetaxel by elacridar (DU-145DOC10 [3]; DU-145DOC10, elacridar 10 µM as printed (higher of two concentrations), 3D clonogenic assay): 7.1 fold | fold lower docetaxel IC50 on addition of ritonavir (DU-145DOC10 [3]; DU-145DOC10, ritonavir 10 µM, 3D clonogenic assay): 3.4 fold | Relative resistance (DU-145DOC10 [3]; [6]): 1.5 | Relative resistance (DU-145DOC10 [3]; [7]): 1.0 | Relative resistance (DU-145DOC10 [3]; [8]): 10.6 | Relative resistance (DU-145DOC10 [3]; [9]): 3.3 | IC50 (DU-145DOC10 [3]; Homo sapiens, DU-145DOC10, 3D clonogenic assay, + elacridar 1 µM, read-out: Docetaxel IC50): 1.6 nM | IC50 (DU-145DOC10 [3]; Homo sapiens, DU-145DOC10, 3D clonogenic assay, + elacridar, first of two values both printed as 1 μM (Figure 6 legend), read-out: Docetaxel IC50): 1.9 nM | IC50 (DU-145DOC10 [3]; Homo sapiens, DU-145DOC10, 3D clonogenic assay, + ritonavir 10 µM, read-out: Docetaxel IC50): 2.8 nM | IC50 (DU-145DOC10 [3]; Homo sapiens, DU-145DOC10, 3D clonogenic assay, without elacridar (elacridar experiment), read-out: Docetaxel IC50): 11.4 nM | IC50 (DU-145DOC10 [3]; Homo sapiens, DU-145DOC10, 3D clonogenic assay, without ritonavir (ritonavir experiment), read-out: Docetaxel IC50): 9.5 nM | IC50 (DU-145DOC10 [3]; Homo sapiens, DU-145DOC10, docetaxel alone, Figure 4A, read-out: IC 50): 9.37 nM | IC50 (DU-145DOC10 [3]; Homo sapiens, DU-145DOC10, docetaxel alone, Figure 6A, read-out: IC 50): 11.4 nM | fold decrease of relative IC50 of docetaxel by elacridar (22Rv1DOC8 [4]; 22Rv1DOC8, elacridar 1 µM as printed (lower of two concentrations), 3D clonogenic assay): 91 fold | fold decrease of relative IC50 of docetaxel by elacridar (22Rv1DOC8 [4]; 22Rv1DOC8, elacridar 10 µM as printed (higher of two concentrations), 3D clonogenic assay): 116 fold | fold decrease of docetaxel IC50 by ritonavir (22Rv1DOC8 [4]; 22Rv1DOC8, ritonavir 32 μM, 3D clonogenic assay): 84 fold | Relative resistance (22Rv1DOC8 [4]; [6]): 1.0 | Relative resistance (22Rv1DOC8 [4]; [7]): 35.5 | Relative resistance (22Rv1DOC8 [4]; docetaxel + ritonavir 10 µM, 3D clonogenic assay, listed as docetaxel): 36 | Relative resistance (22Rv1DOC8 [4]; docetaxel + ritonavir 32 µM, 3D clonogenic assay): 2.3 | Relative resistance (22Rv1DOC8 [4]; [8]): 103.1 | Relative resistance (22Rv1DOC8 [4]; [9]): 42.0 | IC50 (22Rv1DOC8 [4]; 22Rv1DOC8, 3D clonogenic assay, + elacridar 1 µM, read-out: Docetaxel IC50): 1.3 nM | IC50 (22Rv1DOC8 [4]; 22Rv1DOC8, 3D clonogenic assay, + ritonavir 10 µM, read-out: Docetaxel IC50): 46.2 nM | IC50 (22Rv1DOC8 [4]; 22Rv1DOC8, 3D clonogenic assay, + ritonavir 32 µM, read-out: Docetaxel IC50): 3 nM | IC50 (22Rv1DOC8 [4]; 22Rv1DOC8, 3D clonogenic assay, without elacridar (elacridar experiment), read-out: Docetaxel IC50): 134 nM | IC50 (22Rv1DOC8 [4]; 22Rv1DOC8, 3D clonogenic assay, without ritonavir (32 μM ritonavir experiment, Figure 5), read-out: relative IC50 value of docetaxel): 219 nM | IC50 (22Rv1DOC8 [4]; 22Rv1DOC8, 3D clonogenic assay, without ritonavir (ritonavir experiment), read-out: Docetaxel IC50): 54.6 nM | IC50 (22Rv1DOC8 [4]; 22Rv1DOC8, docetaxel alone, Figure 5A, read-out: IC 50): 224 nM | Papp A→B at 60 min, 5 μM ([5]; Caco-2): 2.9 ± 0.6 nm/s | Papp A→B at 60 min, 10 μM ([5]; Caco-2): 6.6 ± 0.2 nm/s | Papp A→B at 120 min, 5 μM ([5]; Caco-2): 8.1 ± 0.6 nm/s | Papp A→B at 120 min, 10 μM ([5]; Caco-2): 9.1 ± 1.5 nm/s | Papp B→A at 60 min, 5 μM ([5]; Caco-2): 203 ± 2.5 nm/s | Papp B→A at 60 min, 10 μM ([5]; Caco-2): 210 ± 7.8 nm/s | Papp B→A at 120 min, 5 μM ([5]; Caco-2): 354 ± 18.3 nm/s | Papp B→A at 120 min, 10 μM ([5]; Caco-2): 296 ± 8 nm/s | efflux ratio at 60 min, 5 μM ([5]; Caco-2, docetaxel 5 μM, incubation 60 min, inhibitor where named: valspodar 10 μM or ritonavir 50 μM, read-out: ER): 69.5 | efflux ratio at 120 min, 5 μM ([5]; Caco-2, docetaxel 5 μM, incubation 120 min, inhibitor where named: valspodar 10 μM or ritonavir 50 μM, read-out: ER): 43.9 | efflux ratio at 60 min, 10 μM ([5]; Caco-2, docetaxel 10 μM, incubation 60 min, inhibitor where named: valspodar 10 μM or ritonavir 50 μM, read-out: ER): 31.8 ± 1.54 | efflux ratio at 120 min, 10 μM ([5]; Caco-2, docetaxel 10 μM, incubation 120 min, inhibitor where named: valspodar 10 μM or ritonavir 50 μM, read-out: ER): 32.7 | ER values (Caco-2 cell monolayers; both at 5 and 10 μM docetaxel, no inhibitor): > 2 | ER (Caco-2 cell monolayers; docetaxel 5 μM, incubation 60 min): 69.46 ± 13.24 | ER (Caco-2 cell monolayers; docetaxel 5 μM, incubation 120 min): 43.85 ± 3.80 | ER (Caco-2 cell monolayers; docetaxel 10 μM, incubation 120 min): 32.66 ± 5.35 | IC50 (GXA 3011): 0.5 nM | IC50 (GXA NUGC-4): 5.5 nM | IC50 (LXFA EKVX): 1.9 nM | IC50 (MAXFLB MCF7): 1.1 nM | IC50 (MAXFTN CAL-51): 1.7 nM | IC50 (MAXFTN MCF 10A): 0.7 nM | IC50 (OVXF 899): 20.2 nM | IC50 (OVXF NCI-ADR-RES): > 100 nM | IC50 (DU-145; + ritonavir 10 µM): 1.7 nM | IC50 (DU-145; [10]): 1.1 nM | IC50 (DU-145; [11]): 2.9 nM | IC50 (22Rv1; + ritonavir 10 µM): 1.8 nM | IC50 (22Rv1; [10]): 1.3 nM | IC50 (22Rv1; [11]): 1.3 nM | IC50 (LXFA 737): 2.2 nM | IC50 (MAXFTN MX1): 1.9 nM | IC50 (OVXF EFO-27): 0.7 nM | IC50 (PC-3M): 2.4 nM | IC50 (15 tumor cell lines): 2.6 nM
